Usually CC50 stands for the concentration at which the toxic effect on the cells reaches its halfway point. Lower therefore signals greater toxicity to the cells. A word on the EC50: it is the concentration needed to bring the measured effect to its halfway point.

Converted amounts (≈) assume the structure as drawn. A value given as a limit tells only on which side of the number the result lay.

Series [1] can be described thus: cytotoxicity assay (percent viability of HEp-2 cells, Cell Titer-Glo). The settings on record: human, HEp-2 cells.
Series [2] concerns respiratory syncytial virus (RSV) strain Long. Description: microbe, parasite or virus in culture. The settings on record: human respiratory syncytial virus, HEp-2, 144 h.

Consider `Cn1c(SCCc2ccccc2)nnc1-c1cccc([N+](=O)[O-])c1` [AB00309238], for which, in series [1], the half-maximal cytotoxic concentration (CC50) at 6 days is above 25 µg/mL. The molecule also displayed a concentration giving a half-maximal response (EC50) in series [2] of 20.3 µg/mL (≈ 59.6 µM).
In the same order, the values of `COc1ccc2cc(Br)ccc2c1CO` [AB00309550] are above 25 µg/mL and 16.3 µg/mL (≈ 61.1 µM).
In the same order, the values of `CCOc1ccccc1-c1cc(C(=O)O)c2cc(Br)ccc2n1` [AB00309817] are above 25 µg/mL and 14.3 µg/mL (≈ 38.6 µM).
In series [1], `O=C(c1ccc(Cl)cc1Cl)N1CCCN(C(=O)c2ccc(Cl)cc2Cl)CC1` [AB00309842] showed a cytotoxic concentration (CC50) at 6 days above 25 µg/mL. This molecule showed an EC50 in series [2] of 12.3 µg/mL (≈ 27.6 µM).
Molecule `COC(=O)c1c(-c2ccc(C)c(C)c2)csc1NC(=O)CCCC(=O)O` [AB00309859] showed a CC50 at 6 days in series [1] above 25 µg/mL. Moreover, the EC50 in series [2] was determined as 6.84 µg/mL (≈ 18.2 µM).
In the same order, the values of `COc1ccc(C(=O)NCCc2cccc(Cl)c2)c(OC)c1` [AB00310156] are above 25 µg/mL and 10.4 µg/mL (≈ 32.5 µM).
In the same order, the values of `COC(=O)c1c(-c2ccc(C)cc2)csc1NC(=O)c1ccccc1Br` [AB00310224] are above 25 µg/mL and 24.5 µg/mL (≈ 56.8 µM).
In the same order, the values of `O=C(c1ccccc1C(=O)N1CCc2ccccc2C1)N1CCc2ccccc2C1` [AB00310729] are above 25 µg/mL and 14.1 µg/mL (≈ 35.6 µM).
In series [1], `CCC(C)N(C(=O)c1cc(Cl)ccc1OC)C(C)CC` (centres unmarked) [AB00310767] had a CC50 at 6 days above 25 µg/mL. In addition, it took 15 µg/mL (≈ 50.5 µM) to reach a half-maximal effect in series [2] (EC50).
In the same order, the values of `CCC(=O)Nc1ccc(-c2csc(N)n2)cc1` [AB00310808] are above 25 µg/mL and 23.6 µg/mL (≈ 95.6 µM).
In the same order, the values of `O=C(Nc1ccccc1Br)c1cnccn1` [AB00310846] are above 25 µg/mL and 19.6 µg/mL (≈ 70.5 µM).
In the same order, the values of `COC(=O)c1c(-c2ccccc2)csc1NC(=O)c1c(-c2ccccc2)noc1C` [AB00310910] are above 25 µg/mL and 1.15 µg/mL (≈ 2.75 µM).
`Nc1ccc2oc(-c3cc(F)c(F)cc3Cl)nc2c1` [AB00311411] displayed a 50% cytotoxic concentration (CC50) at 6 days in series [1] above 25 µg/mL. The molecule also showed an EC50 in series [2] of 22.7 µg/mL (≈ 80.9 µM).
The molecule `CCc1c(C)sc(NC(=O)c2ccc(C)o2)c1C(N)=O` [AB00313012] returned a half-maximal cytotoxic concentration (CC50) at 6 days in series [1] above 25 µg/mL. The EC50 in series [2] worked out at 18 µg/mL (≈ 61.5 µM).
In the same order, the values of `Cc1cccc(C)c1NC(=O)c1cccc(C(=O)Nc2c(C)cccc2C)n1` [AB00313091] are above 25 µg/mL and 19.5 µg/mL (≈ 52.1 µM).
Molecule `COc1ccc(-c2cc(C(=O)O)c3cc(Br)ccc3n2)c(OC)c1` [AB00313218] registered a CC50 at 6 days in series [1] above 25 µg/mL. Moreover, in series [2], a half-maximal effect (EC50) was put at 22.2 µg/mL (≈ 57.1 µM).
In the same order, the values of `NC(=O)c1c(NC(=O)Nc2cccc(Cl)c2)sc2c1CCCC2` [AB00313952] are above 25 µg/mL and 2.72 µg/mL (≈ 7.77 µM).
In series [1], `CC(Oc1ccc(Cl)cc1Cl)C(=O)Nc1ccc(F)c(F)c1` (centres unmarked) [AB00314248] displayed a CC50 at 6 days above 25 µg/mL. In series [2], this molecule showed an EC50 of 23.8 µg/mL (≈ 68.8 µM).
In the same order, the values of `COC(=O)Nc1ccc2ccccc2c1` [AB00314279] are above 25 µg/mL and 23.5 µg/mL (≈ 117 µM).
For `C=CCNc1cc(N2CCN(C(=O)c3ccc(Cl)cc3)CC2)ccc1[N+](=O)[O-]` [AB00315446], the CC50 at 6 days in series [1] was above 25 µg/mL. This molecule also yielded a concentration for a half-maximal effect (EC50) in series [2] of 12 µg/mL (≈ 29.9 µM).
The molecule `Cc1cc(C)cc(OCC(=O)N2CCc3ccccc3C2)c1` [AB00315731] returned a CC50 at 6 days in series [1] above 25 µg/mL. The molecule also gave a half-maximal effective concentration (EC50) in series [2] of 21.1 µg/mL (≈ 71.3 µM).
`O=C(CCN1C(=O)c2cccc3cccc(c23)C1=O)N1CCc2ccccc2C1` [AB00315918] came in with a CC50 at 6 days in series [1] above 25 µg/mL. The EC50 in series [2] worked out at 15.4 µg/mL (≈ 40 µM).
Consider `Cc1cccc(NCc2cc(Cl)ccc2O)n1` [AB00317095], for which, in series [1], the CC50 at 6 days is above 25 µg/mL. The molecule further displayed an EC50 in series [2] of 24.3 µg/mL (≈ 97.8 µM).
In the same order, the values of `CCOc1ccc(-c2nnc(Nc3ccc(OC)c(C(=O)NC)c3)c3ccccc23)cc1` [AB00317165] are above 25 µg/mL and 19.5 µg/mL (≈ 45.4 µM).
In the same order, the values of `O=C(Nc1cccc(Br)c1)C1CCN(C(=O)c2ccc([N+](=O)[O-])cc2)CC1` [AB00317214] are above 25 µg/mL and 12.4 µg/mL (≈ 28.6 µM).

Source of the values: patent US20130085133A1, “ANTI-VIRAL TREATMENT AND ASSAY TO SCREENFOR ANTI-VIRAL AGENT” (Sourthern Research Institute Office of Commercialization …, priority 2010, published 2013).
